Patent publication US10201523B2, “Use of wilforlide A for overcoming chemotherapy resistance” (WESTERN UNIVERSITY OF HEALTH SCIENCES, priority 2013, dated 2019)
Several values for one entry are separate records, joined by “and”; a condition that tells them apart may be missing. Identical values can stand only once.

Experiments:
[1] = system: Bt474-TxR; experiment: SRB cell viability assay, lapatinib with/without wilforlide A pretreatment; format: cell-based; conditions: 72 h
[2] = system: SkBr3-TxR; experiment: as above; format: cell-based; conditions: SkBr3-TxR; for A at 565 nm: background = 0.051
[3] = Lapatinib 6.7 μM, pretreated with 25 μg/ml wilforlide A for 2 h, Table 26
[4] = Lapatinib 20 μM, no wilforlide A pretreatment, Table 25
[5] = Lapatinib 20 μM, no wilforlide A pretreatment, Table 27
[6] = Lapatinib 20 μM, pretreated with 25 μg/ml wilforlide A for 2 h, Table 26
[7] = no wilforlide A pre-Tx, lapatinib 0.01 μM 72 h
[8] = no wilforlide A pre-Tx, lapatinib 0.2 μM 72 h
[9] = no wilforlide A pre-Tx, lapatinib 0.67 μM 72 h
[10] = no wilforlide A pre-Tx, lapatinib 2.0 μM 72 h
[11] = no wilforlide A pre-Tx, lapatinib 6.7 μM 72 h
[12] = no wilforlide A pre-Tx, lapatinib 20 μM 72 h
[13] = wilforlide A 2.5 μg/ml pre-Tx, lapatinib 0.01 μM 72 h
[14] = wilforlide A 2.5 μg/ml pre-Tx, lapatinib 0.067 μM 72 h
[15] = wilforlide A 2.5 μg/ml pre-Tx, lapatinib 0.2 μM 72 h
[16] = wilforlide A 2.5 μg/ml pre-Tx, lapatinib 0.67 μM 72 h
[17] = wilforlide A 2.5 μg/ml pre-Tx, lapatinib 2.0 μM 72 h
[18] = wilforlide A 2.5 μg/ml pre-Tx, lapatinib 6.7 μM 72 h

CS(=O)(=O)CCNCc1ccc(-c2ccc3ncnc(Nc4ccc(OCc5cccc(F)c5)c(Cl)c4)c3c2)o1 [lapatinib]
viability at 6.7 µM ([1]; Lapatinib 6.7 μM, no wilforlide A pretreatment, Table 27): 68% | A at 565 nm ([1]; Lapatinib 6.7 μM, no wilforlide A pretreatment, Table 27, background = 0.047): 0.866 and 0.798 and 0.722 | mean A [1, 3]: 0.729 | viability at 6.7 µM [1, 3]: 63.5% | A at 565 nm ([1]; Lapatinib 6.7 μM, pretreated with 25 μg/ml wilforlide A for 2 h, Table 26, background = 0.047): 0.663 and 0.737 and 0.787 | mean A [1, 4]: 0.876 | viability at 20 µM [1, 4]: 70.2% | A at 565 nm ([1]; Lapatinib 20 μM, no wilforlide A pretreatment, Table 25, background = 0.045): 0.911 and 0.914 and 0.803 | mean A [1, 5]: 0.746 | viability at 20 µM [1, 5]: 63.8% | A at 565 nm ([1]; Lapatinib 20 μM, no wilforlide A pretreatment, Table 27, background = 0.047): 0.807 and 0.697 and 0.735 | mean A [1, 6]: 0.587 | viability at 20 µM [1, 6]: 51.2% | A at 565 nm ([1]; Lapatinib 20 μM, pretreated with 25 μg/ml wilforlide A for 2 h, Table 26, background = 0.047): 0.530 and 0.655 and 0.577 | viability at 0.001 µM ([2]; 72 h, no wilforlide A pre-Tx, lapatinib 0.001 μM 72 h): 100% | viability at 0.01 µM ([2]; 72 h, no wilforlide A pre-Tx, lapatinib 0.01 μM 72 h): 101% | viability at 0.067 µM ([2]; 72 h, no wilforlide A pre-Tx, lapatinib 0.067 μM 72 h): 96.6% | viability at 0.2 µM ([2]; 72 h, no wilforlide A pre-Tx, lapatinib 0.2 μM 72 h): 90% | viability at 0.67 µM ([2]; 72 h, no wilforlide A pre-Tx, lapatinib 0.67 μM 72 h): 85.6% | viability at 2 µM ([2]; 72 h, no wilforlide A pre-Tx, lapatinib 2.0 μM 72 h): 73.5% | viability at 6.7 µM ([2]; 72 h, no wilforlide A pre-Tx, lapatinib 6.7 μM 72 h): 61.6% | viability at 20 µM ([2]; 72 h, no wilforlide A pre-Tx, lapatinib 20 μM 72 h): 42.6% | viability at 0.001 µM ([2]; 72 h, wilforlide A 2.5 μg/ml pre-Tx, lapatinib 0.001 μM 72 h): 100% | viability at 0.01 µM ([2]; 72 h, wilforlide A 2.5 μg/ml pre-Tx, lapatinib 0.01 μM 72 h): 89% | viability at 0.067 µM ([2]; 72 h, wilforlide A 2.5 μg/ml pre-Tx, lapatinib 0.067 μM 72 h): 77.2% | viability at 0.2 µM ([2]; 72 h, wilforlide A 2.5 μg/ml pre-Tx, lapatinib 0.2 μM 72 h): 69.1% | viability at 0.67 µM ([2]; 72 h, wilforlide A 2.5 μg/ml pre-Tx, lapatinib 0.67 μM 72 h): 59.5% | viability at 6.7 µM ([2]; 72 h, wilforlide A 2.5 μg/ml pre-Tx, lapatinib 6.7 μM 72 h): 40.7% | viability at 20 µM ([2]; 72 h, wilforlide A 2.5 μg/ml pre-Tx, lapatinib 20 μM 72 h): 31.1% | mean A ([2]; no wilforlide A pre-Tx, lapatinib 0.001 μM 72 h): 2.302 | mean A [2, 7]: 2.322 | A at 565 nm [2, 7]: 2.458 | mean A ([2]; no wilforlide A pre-Tx, lapatinib 0.067 μM 72 h): 2.222 | mean A [2, 8]: 2.071 | A at 565 nm [2, 8]: 1.945 | mean A [2, 9]: 1.970 | A at 565 nm [2, 9]: 1.871 and 1.990 and 2.048 | mean A [2, 10]: 1.692 | A at 565 nm [2, 10]: 1.609 and 1.759 and 1.708 | mean A [2, 11]: 1.418 | A at 565 nm [2, 11]: 1.426 and 1.445 and 1.384 | mean A [2, 12]: 0.980 | A at 565 nm [2, 12]: 0.958 and 1.024 and 0.957 | mean A ([2]; wilforlide A 2.5 μg/ml pre-Tx, lapatinib 0.001 μM 72 h): 2.265 | mean A [2, 13]: 2.016 | A at 565 nm [2, 13]: 1.817 and 1.976 | mean A [2, 14]: 1.748 | A at 565 nm [2, 14]: 1.344 and 1.909 and 1.992 | mean A [2, 15]: 1.564 | A at 565 nm [2, 15]: 1.299 and 1.540 and 1.854 | mean A [2, 16]: 1.347 | A at 565 nm [2, 16]: 1.127 and 1.398 and 1.517 | mean A [2, 17]: 1.140 | A at 565 nm [2, 17]: 0.987 and 1.095 and 1.339 | mean A [2, 18]: 0.922 | A at 565 nm [2, 18]: 0.794 and 0.932 and 1.040 | A at 565 nm ([2]; wilforlide A 2.5 μg/ml pre-Tx, lapatinib 20 μM 72 h): 0.731 and 0.673 and 0.706 | IC50 ([2]; wilforlide A 2.5 μg/ml pre-Tx, read-out: Drug IC50 after wilforlide A pre-Tx): 886 nM | CE ([2]; chemosensitization effect, wilforlide A 2.5 μg/ml pre-Tx): 13
